In PubChem BioAssay AID256 (DTP/NCI, 2004) one finds T/C data, which are given here for 20 compounds.

The experiment relates to CD2F1 mice, L1210 leukemia ip, survival T/C. Briefly: NCI In Vivo Anticancer Drug Screen. Data for tumor model L1210 Leukemia (intraperitoneal) in CD2F1 (CDF1) mice. The conditions noted are these: higher = longer survival. The essentials:
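Read-out first: treated-group measurement over vehicle-control measurement, expressed as a ratio. Animals bore a transplanted tumor line and were dosed with compound or vehicle.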

[1] abbreviates: endpoint: mean survival time, dose: 100.0 mg/kg/injection, schedule: Q01DX009 (ip), vehicle: saline with Tween-80.
Where [2] appears, read: endpoint: mean survival time, dose: 100.0 mg/kg/injection, schedule: Q04DX003 (ip), vehicle: saline with Tween-80.
The mark [3] stands for this setting: endpoint: mean survival time, dose: 200.0 mg/kg/injection, schedule: Q01DX009 (ip), vehicle: saline with Tween-80.
Setting [4] is: endpoint: mean survival time, dose: 200.0 mg/kg/injection, schedule: Q04DX003 (ip), vehicle: saline with Tween-80.
Where [5] appears, read: endpoint: mean survival time, dose: 400.0 mg/kg/injection, schedule: Q01DX009 (ip), vehicle: saline with Tween-80.
The mark [6] stands for this setting: endpoint: mean survival time, dose: 400.0 mg/kg/injection, schedule: Q04DX003 (ip), vehicle: saline with Tween-80.
[7] abbreviates: endpoint: mean survival time, dose: 100.0 mg/kg/injection, schedule: Q04DX002 (ip), vehicle: saline with Tween-80.
Where [8] appears, read: endpoint: mean survival time, dose: 200.0 mg/kg/injection, schedule: Q04DX002 (ip), vehicle: saline with Tween-80.
Setting [9] is: endpoint: mean survival time, dose: 400.0 mg/kg/injection, schedule: Q04DX002 (ip), vehicle: saline with Tween-80.
[10] abbreviates: endpoint: mean survival time, dose: 25.0 mg/kg/injection, schedule: Q01DX009 (ip), vehicle: saline.
Where [11] appears, read: endpoint: mean survival time, dose: 50.0 mg/kg/injection, schedule: Q01DX009 (ip), vehicle: saline.
Where [12] appears, read: endpoint: mean survival time, dose: 200.0 mg/kg/injection, schedule: Q01DX009 (ip), vehicle: saline.
The mark [13] stands for this setting: endpoint: mean survival time, dose: 75.0 mg/kg/injection, schedule: Q01DX001 (ip), vehicle: other.

“And” between values parts separate entries of the source, which are not always exact repeats. Equal values may be shown once. Toxic doses and inconclusive results are not listed.

On to `OCCO`, for which the T/C (endpoint: mean survival time, dose: 100.0 mg/kg/injection, schedule: Q01DX009 (ip), vehicle: saline sonified) is 94 % of control and 101 % of control; the T/C (endpoint: mean survival time, dose: 100.0 mg/kg/injection, schedule: Q04DX003 (ip), vehicle: saline) is 103 % of control and 106 % of control; the T/C (endpoint: mean survival time, dose: 200.0 mg/kg/injection, schedule: Q01DX009 (ip), vehicle: saline sonified) was 94 % of control and 101 % of control; the T/C (endpoint: mean survival time, dose: 200.0 mg/kg/injection, schedule: Q04DX003 (ip), vehicle: saline) was 104 % of control and 98 % of control; the T/C (endpoint: mean survival time, dose: 400.0 mg/kg/injection, schedule: Q01DX009 (ip), vehicle: saline sonified) was 93 % of control and 104 % of control; the T/C (endpoint: mean survival time, dose: 400.0 mg/kg/injection, schedule: Q04DX003 (ip), vehicle: saline) was 104 % of control and 101 % of control. Further, the T/C reads like this: (endpoint: median survival time, dose: 0.25 % in 0.5 ml injection vol, schedule: Q01DX009 (ip), vehicle: water) 95 % of control; (endpoint: median survival time, dose: 0.5 % in 0.5 ml injection vol, schedule: Q01DX009 (ip), vehicle: water) 94 % of control; (endpoint: median survival time, dose: 1.0 % in 0.5 ml injection vol, schedule: Q01DX009 (ip), vehicle: water) 94 % of control; (endpoint: median survival time, dose: 2.0 % in 0.5 ml injection vol, schedule: Q01DX009 (ip), vehicle: water) 105 % of control.

As to `c1cc(N2CCCC2)cc(N2CCCC2)c1`, the T/C runs as follows: under setting [1], 96 % of control; under setting [2], 102 % of control; under setting [3], 88 % of control; under setting [4], 106 % of control; under setting [5], 88 % of control; under setting [6], 98 % of control.

`CC(=O)CC(OC(C)=O)(C(F)(F)F)C(F)(F)F`: the T/C was 98 % of control (endpoint: mean survival time, dose: 25.0 mg/kg/injection, schedule: Q04DX002 (ip), vehicle: saline); 102 % of control (endpoint: mean survival time, dose: 50.0 mg/kg/injection, schedule: Q04DX002 (ip), vehicle: saline); 90 % of control (endpoint: mean survival time, dose: 100.0 mg/kg/injection, schedule: Q04DX003 (ip), vehicle: Klucel (hydroxypropylcellulose) (HPC)).

`COC(=O)C1CSCC1=O` (configuration not stated): the T/C was 97 % of control (endpoint: mean survival time, dose: 50.0 mg/kg/injection, schedule: Q01DX001 (ip), vehicle: saline with Tween-80); 97 % of control (endpoint: mean survival time, dose: 100.0 mg/kg/injection, schedule: Q01DX001 (ip), vehicle: saline with Tween-80); 103 % of control (endpoint: mean survival time, dose: 200.0 mg/kg/injection, schedule: Q01DX001 (ip), vehicle: saline with Tween-80).

Take `Cn1c(=O)sc2ccccc21`: the T/C was 111 % of control under setting [7] and 114 % of control under setting [8].

For `COc1cccc(N2C(=O)CSC2=S)c1`, the T/C under setting [2] is 107 % of control, the T/C under setting [4] is 96 % of control and the T/C under setting [6] is 106 % of control.

In the case of `COc1c(C)c2c(c3c1CC(O)O3)C(=O)OC2` (configuration not stated), the T/C is, setting by setting: under setting [7], 112 % of control; under setting [8], 103 % of control; under setting [9], 106 % of control.

For the compound `NC1=NC(=O)N2CC12` (configuration not stated), the T/C by setting is: (endpoint: mean survival time, dose: 12.5 mg/kg/injection, schedule: Q01DX009 (ip), vehicle: other) 100 % of control; (endpoint: mean survival time, dose: 12.5 mg/kg/injection, schedule: Q01DX009 (ip), vehicle: saline) 107 % of control; (endpoint: mean survival time, dose: 25.0 mg/kg/injection, schedule: Q01DX009 (ip), vehicle: other) 100 % of control; under setting [10], 106 % of control and 110 % of control; (endpoint: mean survival time, dose: 50.0 mg/kg/injection, schedule: Q01DX009 (ip), vehicle: other) 105 % of control; under setting [11], 115 % of control and 110 % of control. Besides, the T/C under setting [12] is 156 % of control and 173 % of control.

Consider `c1cc2nc(c1)CSCCCCCCCSC2`, for which the T/C under setting [1] was 98 % of control, the T/C under setting [3] was 90 % of control and the T/C under setting [5] was 93 % of control.

As for `CCCCOC(=O)/C=C/C(=O)OCCCC`, the T/C by setting is: under setting [2], 102 % of control; under setting [4], 102 % of control; under setting [6], 105 % of control.

With `COc1ccc2cc3[n+](cc2c1OC)CCc1cc2c(cc1-3)OCO2`, the T/C reads like this: (endpoint: mean survival time, dose: 5.0 mg/kg/injection, schedule: Q01DX009 (ip), vehicle: saline with Tween-80) 106 % of control; (endpoint: mean survival time, dose: 5.0 mg/kg/injection, schedule: Q04DX003 (ip), vehicle: saline with Tween-80) 98 % of control; (endpoint: mean survival time, dose: 10.0 mg/kg/injection, schedule: Q01DX009 (ip), vehicle: saline with Tween-80) 93 % of control; (endpoint: mean survival time, dose: 10.0 mg/kg/injection, schedule: Q04DX003 (ip), vehicle: saline with Tween-80) 96 % of control; (endpoint: mean survival time, dose: 20.0 mg/kg/injection, schedule: Q04DX003 (ip), vehicle: saline with Tween-80) 94 % of control.

As for `c1ccc(C(Nc2ncnc3nncnc23)c2ccccc2)cc1`, under setting [13], the T/C is 94 % of control.

As to `CC(N)C(=O)NC(C(=O)O)C(C)O` (configuration not stated), the T/C was 102 % of control under setting [10]; 103 % of control under setting [11]; 105 % of control (endpoint: mean survival time, dose: 100.0 mg/kg/injection, schedule: Q01DX009 (ip), vehicle: saline); 98 % of control under setting [12]; 98 % of control (endpoint: mean survival time, dose: 400.0 mg/kg/injection, schedule: Q01DX009 (ip), vehicle: saline).

As to `COC1CCC(/C(C#N)=C/C2CCC(OC)C(OC)C2)CC1` (configuration not stated), the T/C is 94 % of control under setting [7], 94 % of control under setting [8] and 94 % of control under setting [9].

Regarding `CC(=O)OC1COC(NC(=O)N(CCCl)N=O)C(OC(C)=O)C1OC(C)=O` (configuration not stated), the T/C (endpoint: median survival time, dose: 0.75 mg/kg/injection, schedule: Q01DX009 (ip), vehicle: saline with Tween-80) was 115 % of control and 122 % of control and 111 % of control; the T/C (endpoint: median survival time, dose: 3.0 mg/kg/injection, schedule: Q01DX009 (ip), vehicle: saline with Tween-80) is 150 % of control and 166 % of control; the T/C (endpoint: median survival time, dose: 6.0 mg/kg/injection, schedule: Q01DX009 (ip), vehicle: saline with Tween-80) was 168 % of control and 191 % of control and 205 % of control; the T/C (endpoint: median survival time, dose: 12.0 mg/kg/injection, schedule: Q01DX009 (ip), vehicle: saline with Tween-80) was 315 % of control and 322 % of control and 674 % of control.

With `CC1(C)C=C(Cc2ccccc2)C(=O)c2ccccc21`, the T/C is, setting by setting: under setting [1], 94 % of control; under setting [2], 96 % of control; under setting [3], 97 % of control; under setting [4], 100 % of control; under setting [5], 97 % of control; under setting [6], 97 % of control.

On to `CC1CC2C3(C1)CC(C(=O)OC3=O)C2(C)C` (configuration not stated), for which the T/C by setting is: under setting [13], 94 % of control; (endpoint: mean survival time, dose: 150.0 mg/kg/injection, schedule: Q01DX001 (ip), vehicle: other) 92 % of control; (endpoint: mean survival time, dose: 300.0 mg/kg/injection, schedule: Q01DX001 (ip), vehicle: other) 92 % of control.

Consider `Cc1ccc(Cl)cc1NC(=O)c1ccc([N+](=O)[O-])cc1`, for which, under setting [2], the T/C was 90 % of control.

In the case of `COc1cc2ccc(CC(N)=O)cc2cc1OC`, the T/C by setting is: under setting [1], 100 % of control; under setting [3], 97 % of control; under setting [5], 97 % of control.

On to `O=C(O)c1cccc(N=Nc2ccc(N(CCCl)CCCl)cc2)c1`, for which the T/C was 121 % of control (endpoint: mean survival time, dose: 10.0 mg/kg/injection, schedule: Q01DX009 (ip), vehicle: Klucel (hydroxypropylcellulose) (HPC)); 97 % of control (endpoint: mean survival time, dose: 20.0 mg/kg/injection, schedule: Q01DX009 (ip), vehicle: Klucel (hydroxypropylcellulose) (HPC)); 89 % of control (endpoint: mean survival time, dose: 40.0 mg/kg/injection, schedule: Q01DX009 (ip), vehicle: Klucel (hydroxypropylcellulose) (HPC)).
